According to US20170209579A1, “NON-INVASIVE RADIOFREQUENCY FIELD TREATMENT FOR CANCER THERAPY” (Baylor College of Medicine, priority 2014, published 2017):

Key:
HepG2 xenograft = assay: Orthotopic HepG2 xenografts in CB17 SCID mice, tumor mass; type: in vivo, mouse
From the text: For in vivo studies, an implanted mouse model of human HCC was generated in CB17SCID mice (Taconic, Hudson, N.Y.). Female mice between 4 and 5 weeks in age were purchased and acclimatized in M.D. Anderson Animal facilities for up to one week. All animals were handled, housed and studied in accordance with the Institutional Animal Care and Use Committee. Tumors were generated after orthotopic implantation of approximately 1.6 million cells into the liver of each mouse (10 mice per group). Bioluminescence imaging indicated tumor development in the majority of mice three weeks after implantation. Euthanasia was performed by carbon dioxide inhalation followed by cervical spine dislocation.
Cultured luciferase and GFP-expression human HCC cell lines (Hep3B and HepG2) were harvested from an exponentially growing culture and washed with PBS. The cells were re-suspended in 3 ml PBS and final centrifugation was performed at 1000 RPM for 5 minutes. Supernatant was discarded and the cell pellet was used for implantation. The concentration of cells achieved using this protocol was 160,000 cells per micro liter. The cells were kept on ice and animals were injected within 3-4 hours after final centrifugation.
Before surgery, hair was removed from the ventral surface of the abdomen using clippers. Mice were anesthetized using 2.5% isoflurane. The surgical field was sterilized with 70% (v/v) ethanol in water. Mice were placed supine on a heating pad and the surgical site was sterilized using povidone iodine swab sticks. After confirming induction of anesthesia, an approximately 1-cm transverse incision was made in the skin of the upper abdomen slightly left of the midline. Deeper layers of muscle and peritoneum were incised and hemostasis was achieved using silver nitrate chemical cautery sticks. By applying gentle pressure on the lower abdomen and lower chest, the left lobe of the liver was eviscerated. […]
Mice with confirmed tumors on bioluminescence were then randomized in groups of 10. […] Sample size was calculated using Stata SE 12.1 for Mac (College Station, Tex.). […]

Rad51 = assay: Colocalization of Rad51 with γ-H2AX foci at gemcitabine-stalled replication forks; type: cell-based, human; conditions: Hep3B
From the text: FIGS. 15A-15D provide inhibition of Mre11 and Rad51 recruitment at gemcitabine-stalled replication forks by hyperthermia. (15A) Hep3B cells were exposed to hyperthermia and/or gemcitabine. (15B) and (15C) Mre11 and Rad51 were recruited at gemcitabine-stalled replication forks. […] Scale bar=10 μm. (15D) Quantification of data from colocalization experiments. Data are mean Pearson correlation (a.u.) and error bars represent the SD from three independent experiments with 10 replicates each (*P<0.05, **P<0.01). Gem=Gemcitabine; HT=Hyperthermia; N/A=not applicable, i.e., in hyperthermia treated cells BrdU staining is not detected as distinct foci and therefore correlation could not be quantified; ns=not significant, by the Student unpaired two-sided t test in comparison with gemcitabine alone group. Also, see FIGS. 22-24. […]
For immunocytochemistry assay, an indirect immunofluorescence approach was used. […] Cells from an exponentially growing culture were counted and approximately 50,000 cells were seeded in each well of a 12-well plate. […]
The slides were sealed with a conventional nail polish hardener and stored at 4° C. until imaging. […] Exposure settings were set to maximize dynamic range initially and then kept constant across multiple samples to allow quantitative comparisons. […]

With `Nc1ccn([C@@H]2O[C@H](CO)[C@@H](O)C2(F)F)c(=O)n1` [gemcitabine, 2′,2′-difluoro 2′-deoxycytidine] the “Mean tumor mass [±SD]” value (HepG2 xenograft; RF then gemcitabine, weekly for three weeks) was 107 ± 64 mg, the “Mean tumor mass [±SD]” value (HepG2 xenograft; gemcitabine alone, weekly treatments for three weeks) was 170 ± 51 mg and the “Mean tumor mass [±SD]” value (HepG2 xenograft; gemcitabine then RF, weekly for three weeks) was 74 ± 45 mg. The “mean Pearson correlation, Rad51 with γ-H2AX foci” value (Rad51; gemcitabine alone (10 μg/ml)) was 0.24 and the “mean Pearson correlation, Rad51 with γ-H2AX foci” value (Rad51; hyperthermia 42.5° C. 75 minutes then gemcitabine 10 μg/ml) was 0.44.
